Experimental findings from ChEMBL document CHEMBL4190378, “Synthesis and evaluation of new 2-chloro-4-aminopyrimidine and 2,6-dimethyl-4-aminopyrimidine derivatives as tubulin polymerization inhibitors” (Bioorg Med Chem Lett, 2018) are described below.

As usually defined, the IC50 is the midpoint of a concentration-inhibition curve. High values mean a need for much substance, low ones inhibition by little substance.

A value given as a limit tells only on which side of the number the result lay.

One assay concerns HepG2. Briefly: Antiproliferative activity against human HepG2 cells incubated for 48 hrs by MTT assay. It counts as functional, cell-based. The settings on record: HepG2, 48 h. A general note: Formazan colour is commonly taken as a measure of viable cells.
Another assay deals with HCT-116. Briefly: Antiproliferative activity against human HCT116 cells incubated for 48 hrs by MTT assay. The format is functional, cell-based. The settings on record: HCT-116, 48 h.
The subject of the next assay is HeLa. The assay can be described thus: Antiproliferative activity against human HeLa cells incubated for 48 hrs by MTT assay. It counts as functional, cell-based.
The next assay has as its system MDA-MB-231. Briefly: Antiproliferative activity against human MDA-MB-231 cells incubated for 48 hrs by MTT assay. It counts as functional, cell-based. The settings on record: MDA-MB-231, 48 h.
For a further assay, the system named is A549. Briefly: Antiproliferative activity against human A549 cells incubated for 48 hrs by MTT assay. It counts as functional, cell-based. The settings on record: A549, 48 h.
Assay [1] in a line: Inhibition of porcine brain tubulin polymerization measured every 60 secs for 90 mins by DAPI dye based fluorescence assay. Details: species or system Sus scrofa.

In the case of `COc1ccc(N(C)c2ccnc(Cl)n2)cc1OCCBr`, the IC50 with HepG2 came out at 7.72 µM; in the assay with HCT-116, 5.67 µM; with HeLa, 3.31 µM; with MDA-MB-231 it was 6.62 µM; in the assay with A549, 4.64 µM.

With `COc1ccc(N(C)c2ccnc(Cl)n2)cc1`, the IC50 in the assay on HepG2 was 2.12 µM; in the assay on HCT-116, 1.46 µM; in the assay with HeLa, 0.917 µM; with MDA-MB-231, 2.81 µM; in the assay with A549 it was 0.611 µM.

Turning to `COc1ccc(N(C)c2ccnc(Cl)n2)cc1OCCCCC[Se]C#N`, the IC50 in the assay on HepG2, in the assay with HCT-116, with HeLa, in the assay with MDA-MB-231 and in the assay with A549 was more than 10 µM each time.

With `COc1ccc(N(C)c2ccnc(Cl)n2)cc1OCCCCBr`, the IC50 was 0.168 µM in the assay on HepG2; 1.14 µM in the assay with HCT-116; 0.307 µM in the assay with HeLa; 0.992 µM in the assay with MDA-MB-231; 0.591 µM with A549.

Take `COc1ccc(N(C)c2ccnc(Cl)n2)cc1F`: the IC50 came out at 0.844 µM in the assay on HepG2; 0.914 µM with HCT-116; 0.241 µM in the assay with HeLa; 1.28 µM in the assay with MDA-MB-231; 0.651 µM with A549.

Turning to `COc1ccc(N(C)c2ccnc(Cl)n2)cc1O`, the IC50 in the assay on HepG2 amounted to 0.464 µM; in the assay on HCT-116, 0.422 µM; with HeLa it was 0.096 µM; in assay [1], 6.11 µM; with MDA-MB-231 it was 0.833 µM; with A549, 0.381 µM.

Take `COc1ccc(N(C)c2cc(C)nc(C)n2)cc1[N+](=O)[O-]`: the IC50 is 2.98 µM in the assay with HepG2; 4.67 µM with HCT-116; 3.72 µM with HeLa; 3.44 µM with MDA-MB-231; 3.27 µM in the assay on A549.

With `COc1ccc(N(C)c2cc(C)nc(C)n2)cc1`, the IC50 in the assay on HepG2 amounted to 0.824 µM; with HCT-116, 1.32 µM; in the assay on HeLa, 0.322 µM; in the assay on MDA-MB-231 it was 3.65 µM; with A549 it was 0.277 µM.

With `COc1ccc(N(C)c2ccnc(Cl)n2)cc1Cl`, the IC50 stood at 2.63 µM with HepG2; 1.17 µM with HCT-116; 0.517 µM with HeLa; 1.38 µM in the assay with MDA-MB-231; 0.621 µM in the assay with A549.

As for `COc1ccc(N(C)c2ccnc(Cl)n2)cc1OCC[Se]C#N`, the IC50 worked out at 1.67 µM with HepG2; 1.22 µM in the assay with HCT-116; 0.436 µM in the assay on HeLa; 2.75 µM in the assay on MDA-MB-231; 0.463 µM with A549.

As to `COc1ccc(N(C)c2ccnc(Cl)n2)cc1OCCCCCBr`, the IC50 is more than 10 µM in the assay with HepG2; more than 10 µM with HCT-116; 7.08 µM in the assay on HeLa; more than 10 µM in the assay on MDA-MB-231; 9.71 µM with A549.

As for `COc1ccc(N(C)c2nc(C)nc3ccccc23)cc1` [VERUBULIN], the IC50 in the assay with HCT-116 was determined as 0.005 µM; in the assay on HeLa it was 0.006 µM; in assay [1], 2.74 µM; in the assay on A549 it was 0.004 µM.

Consider `COc1ccc(N(C)c2ccnc(Cl)n2)cc1OCCCBr`, for which the IC50 in the assay on HepG2 is 1.24 µM; in the assay with HCT-116, 1.97 µM; with HeLa, 0.307 µM; in the assay with MDA-MB-231 it was 1.28 µM; in the assay with A549, 0.862 µM.

As for `COc1ccc(N(C)c2cc(C)nc(C)n2)cc1Cl`, the IC50 was 0.787 µM with HepG2; 1.19 µM with HCT-116; 0.316 µM in the assay on HeLa; 1.9 µM with MDA-MB-231; 0.78 µM in the assay on A549.

`Cc1cc(N(C)c2ccc([Se]C#N)cc2)nc(C)n1`: the IC50 in the assay on HepG2 was determined as 0.155 µM; in the assay on HCT-116, 0.245 µM; with HeLa, 0.252 µM; in the assay on MDA-MB-231 it was 0.614 µM; in the assay on A549, 0.207 µM.

Regarding `COc1ccc(N(C)c2ccnc(Cl)n2)cc1OCCCC[Se]C#N`, the IC50 with HepG2, in the assay on HCT-116, in the assay on HeLa, in the assay with MDA-MB-231 and in the assay with A549 was more than 10 µM each time.

Regarding `COc1ccc(N(C)c2cc(C)nc(C)n2)cc1F`, the IC50 with HepG2 amounted to 2.06 µM; in the assay on HCT-116, 0.584 µM; in the assay with HeLa, 0.471 µM; in the assay on MDA-MB-231, 2.79 µM; in the assay on A549, 0.632 µM.

Regarding `C[Se]c1ccc(N(C)c2cc(C)nc(C)n2)cc1`, the IC50 in the assay with HepG2 came to 0.198 µM; in the assay on HCT-116 it was 0.465 µM; in the assay with HeLa, 0.138 µM; with MDA-MB-231, 0.321 µM; in the assay on A549 it was 0.218 µM.

On to `COc1ccc(N(C)c2ccnc(Cl)n2)cc1OCCC[Se]C#N`, for which the IC50 in the assay on HepG2 was 5.15 µM; in the assay on HCT-116, 3.92 µM; in the assay with HeLa it was 4.71 µM; in the assay on MDA-MB-231, 1.49 µM; in the assay with A549 it was 3.71 µM.

For the molecule `COc1ccc(N(C)c2ccnc(Cl)n2)cc1[N+](=O)[O-]`, the IC50 in the assay on HepG2 was determined as 6.12 µM; in the assay with HCT-116, 4.7 µM; in the assay with HeLa, 4.73 µM; in the assay on MDA-MB-231 it was 8.12 µM; with A549, 3.78 µM.
